Legend:
[1] = in vivo
[2] = system: low HER2-expressing breast and gastric cancer models; assay: Low HER2-expressing breast and gastric cancer models; format: in vivo; conditions: conjugate single doses of 1 mg/kg or […]; Kadcyla at doses of 10 mg/kg and above
[3] = Pharmacokinetics and tolerability in non-human primates; conditions: therapeutic doses
[4] = system: HER2-driven tumor models; assay: HER2-driven tumor models, combination with trastuzumab and pertuzumab; format: in vivo
[5] = system: SKOV3 cells; assay: SKOV3 mouse tumor xenograft model; format: in vivo; conditions: FIG. 16
[6] = system: H522 cells; assay: H522 mouse tumor xenograft model; format: in vivo; conditions: FIG. 15; Example 16E 5 mg/kg; Example 17B 5 mg/kg; Kadcyla 10 mg/kg; IV single dose
[7] = target: T1, HER2 protein in SKBR3 cells (Homo sapiens, UniProt P04626); assay: HER2 degradation, western analysis; format: cell-based; conditions: 4 hours; for HER2 remaining: 10 μg/ml each, combined with trastuzumab and pertuzumab; for full length HER2, percentage of untreated cells: 10 μg/ml, test antibody alone or in combination with trastuzumab
T1 construct: endogenous in cells; host or cells: SKBR3
Procedure: The effect of anti-HER2 antibodies on HER2 degradation in SKBR3 cells was determined by western analysis after antibody treatment. 300,000 SKBR3 cells were plated in DMEM media with 10% FBS in each well of 6 well culture dishes and grown overnight at 37° in 5% CO2 atmosphere. The media was removed and replaced with fresh media containing 10 μg/ml of each antibody and incubated for 4 hours. The cells were washed once with ice cold PBS and lysed by addition of 200 μl of buffer containing 50 mM Tris HCl, pH 7.4, 150 mM NaCl, 1% Triton X-100, cOmplete Protease Inhibitor cocktail tablets (Roche, Indianapolis, Ind.) and PhosSTOP phosphatase Inhibitor cocktail tablets (Roche, Indianapolis, Ind.). Lysates were centrifuged at 15,000 rpm for 15 minutes at 4° to remove insoluble debris. […] The separated proteins were transferred to a nitrocellulose membrane on a semi-dry electrophoretic transfer system (Bio-Rad, Transblot system) for 30 minutes at 10 volts in transfer buffer (Life Technologies, Cat.# NP0006) containing 10% methanol. […] After the incubation the membrane was washed 3 times with 10 ml TTBS and then incubated for 1 hour with secondary antibodies: a goat anti-rabbit IgG conjugated to IRdye® 800CW (Li-Cor, Cat.#926-32211) and a goat anti-mouse IgG conjugated to IRdye® 680RD (Li-Cor, Cat.#926-68070) both diluted 1:10,000 in blocking buffer. The membrane was again washed 3 times with 10 ml TTBS and scanned on a Li-Cor Odyssey scanner. The bands corresponding to full length HER2 protein and to actin were quantified using the scanner software. Each HER2 band was normalized to the actin band and expressed as a percentage of HER2 protein from cells that were not treated with any anti-HER2 antibodies.

[8] = system: SKBR3 cells; assay: Internalization rate with anti-HER2 antibody combination; format: cell-based
Procedure: For the assay, 40,000 SKBR3 cells were plated in DMEM media containing 10% FBS, in each well of three 96 well plates (black colored plates with clear bottomed wells) and allowed to attach overnight at 37° in 5% CO2. The next day the cells were treated with antibodies as follows. […] The unbound antibody was removed by washing the cells two times with ice cold media. For detection, 5 μg/ml of an Alexa 647 labelled anti-human IgG Fab fragment was added to each well in ice cold media and incubated on ice for 1 hr. The unbound secondary antibody was removed by washing each well 2 times with ice cold media. […] Each treatment was carried out in triplicate. One set of wells were treated with the Alexa 647 labelled anti-human IgG monovalent Fab fragment alone, and the fluorescence measured in these wells was used to subtract background fluorescence.
One plate was left on ice to determine the time 0 values for each treatment, and the other plates were incubated at 37° C. After 1.5 hours, one plate from 37° C., and the time 0 plate, were washed 2 times with ice cold PBS and scanned using the 680 nm channel of a Licor Odyssey scanner. The fluorescence measured in each well is used as the total fluorescence for each treatment. The cells were then acid washed 2 times with 100 mM glycine, 50 mM KCl, and 20 mM […], pH2.2, then washed two times with ice cold PBS to remove the surface bound antibodies. The plates were scanned again to determine the amount of internalized fluorescence in each well. The 24 hour plates were analyzed the same way the next day.

[9] = system: SKBR3 cells; assay: HER2 internalization in SKBR3 cells by fluorescence microscopy; format: cell-based; conditions: 90 minutes, in combination with trastuzumab-Alexa-647 and pertuzumab
Procedure: The effect of a combination of anti-HER2 antibodies on the HER2 internalization in SKBR3 cells was investigated by fluorescence microscopy. […] SKBR3 cells were seeded in 4 chamber microscope slides and allowed to attach by overnight growth in DMEM media (ATCC, Manassas, Va., Cat.#30-2002) with 10% fetal bovine serum (FBS) (Gibco®, Life Technologies, Grand Island, N.Y., Cat.#16140-071) at 37° in 5% CO2. […] The location of trastuzumab was visualized using fluorescence microscope.

[10] = system: TOV-21G cells; assay: TOV-21G mouse tumor xenograft model; format: in vivo; conditions: FIG. 14; Example 16E 5 mg/kg or 2 mg/kg; Kadcyla 10 mg/kg; IV single dose
Excerpt: (§1) Tumor growth inhibition (% TGI) was defined as the percent difference in median tumor volumes (MTVs) between treated and control groups.
In a PR response, the tumor volume was 50% or less of its Day 1 volume for three consecutive measurements during the course of the study, and equal to or greater than 13.5 mm^3 for one or more of these three measurements. In a CR response, the tumor volume was less than 13.5 mm3 for three consecutive measurements during the course of the study. An animal with a CR response at the termination of a study was additionally classified as a tumor-free survivor (TFS). Animals were monitored for regression responses.
Female NCr nu/nu were inoculated subcutaneously with TOV-21G cells (n=10 for each group). Test compounds or vehicle were dosed IV as a single dose on day 1 or as indicated. Tumor size was measured at the times indicated in FIGS. 8 to 18 using digital calipers. Tumor volume was calculated and was used to determine the delay in tumor growth. Mice were sacrificed when tumors reached a size of 800 to 1500 mm^3. Tumor volumes are reported as the mean±SEM for each group.

[11] = system: SNU-5 cells; assay: SNU5 mouse tumor xenograft model; format: in vivo; conditions: FIG. 13
[12] = system: BRE-0333 HER2 1+; assay: BRE-0333 HER2 1+ patient derived xenograft model; format: in vivo; conditions: FIG. 18; 3 mg/kg IV single dose; n=8
Procedure: as §1
(§2) Treatment efficacy was determined from the incidence and magnitude of regression responses of the tumor size observed during the study. […] In a PR response, the tumor volume was 50% or less of its Day 1 volume for three consecutive measurements during the course of the study, and equal to or greater than 13.5 mm^3 for one or more of these three measurements. In a CR response, the tumor volume was less than 13.5 mm3 for three consecutive measurements during the course of the study. An animal with a CR response at the termination of a study was additionally classified as a tumor-free survivor (TFS). Animals were monitored for regression responses.

[13] = system: BT474 tumor fragments; assay: BT474 mouse tumor xenograft model; format: in vivo; conditions: FIG. 20; 5 mg/kg or 2 mg/kg IV single dose at day 1
[14] = system: MAXF_1162 HER2 3+; assay: MAXF_1162 HER2 3+ patient derived xenograft model; format: in vivo; conditions: FIG. 19, n=10
Procedure: as §1, §2

[15] = system: Calu-3 cells; assay: Calu-3 mouse tumor xenograft model; format: in vivo; conditions: FIG. 17, 5 mg/kg IV single dose at day 1
[16] = system: NCI-N87 cells; assay: NCI-N87 mouse tumor xenograft model; format: in vivo; conditions: FIG. 12; Example 16F […] single dose day 1; trastuzumab 15 mg/kg + pertuzumab 15 mg/kg weekly for 3 weeks
[17] = system: phosphorylated AKT in BT474 cells; assay: Ligand-independent HER2 signaling in BT474 cells, phospho-AKT western; format: cell-based; conditions: 10 μg/ml antibody, 4 hours, listed as HT19B
Procedure: The effect of anti-HER2 antibodies on HER2 signaling in BT474 cells (ATCC, HTB-20) was determined by measuring changes in the amount of phosphorylated AKT after a 4 hour antibody treatment. BT474 cells (300,000 cells) were plated in DMEM media with 10% FBS in each well of 6 well culture dishes and grown overnight at 37° in 5% CO2 atmosphere. The media was removed and replaced with fresh media containing 10 μg/ml of test antibody and incubated for 4 hours. The cells were washed once with ice cold PBS and lysed by addition of 200 μl of buffer containing 50 mM Tris HCl, pH 7.4, 150 mM NaCl, 1% Triton X-100, cOmplete Protease Inhibitor cocktail tablets (Roche, Indianapolis, Ind.) and PhosSTOP phosphatase Inhibitor cocktail tablets (Roche, Indianapolis, Ind.). Lysates were centrifuged at 15,000 rpm for 15 minutes at 4° to remove insoluble debris. The levels of phosphorylated AKT were determined by western analysis. […] The bands corresponding to AKT, phospho-AKT, and to actin were quantified using the scanner software. Each phospho-AKT band was normalized to the total AKT band and expressed as a percentage of phospho-AKT protein from cells that were not treated with any anti-HER2 antibodies.

[18] = with Trastuzumab and Pertuzumab, 0 hr
[19] = with Trastuzumab and Pertuzumab, […]
[20] = with Trastuzumab and Pertuzumab, 24 hrs

## XMT 1519-(EG2-MI-(PHF-BA-(AF-HPA-Ala)))
[1]
  pharmacokinetic profile: excellent pharmacokinetic profile
[2]
  tumor response: complete regression
[3]
  tolerability: well tolerated
[4]
  efficacy in combination with trastuzumab and pertuzumab: synergistic efficacy

## rituximab-(EG2-MI-(10 kDa PHF-BA-(AF-HPA-Ala))) [Example 17B, reference compound]
[5]; Kadcyla 10 mg/kg, Example 17B 5 mg/kg, IV single dose
  tumor response: did not attain the threshold for therapeutic activity
[6]
  tumor response: did not attain the threshold for therapeutic activity

## XMT 1518: affinity matured fully human anti-HER2 IgG1 antibody, heavy chain SEQ ID NO: 3, light chain SEQ ID NO: 4
[7]
  HER2 remaining: 20%
  full length HER2, percentage of untreated cells: 78%
[8]; antibody alone, 24 hrs
  Percent internalized: 88%
[8]; antibody alone, […]
  Percent internalized: 16%
[8]; [18]
  Percent internalized: 2%
[8]; [19]
  Percent internalized: 90%
[8]; with Trastuzumab, 0 hr
  Percent internalized: 2%
[8]; with Trastuzumab, 24 hrs
  Percent internalized: 106%
[8]; with Trastuzumab, […]
  Percent internalized: 41%

## XMT 1519: fully human anti-HER2 IgG1 monoclonal antibody, heavy chain SEQ ID NO: 5, light chain SEQ ID NO: 6
[9]
  effect on HER2 internalization and localization: promotes the internalization and trafficking of HER2 to the lysosomes
[7]
  HER2 remaining: 42%
[8]; antibody alone, 0 hr
  Percent internalized: 2%
[8]; antibody alone, 24 hrs
  Percent internalized: 83%
[8]; [18]
  Percent internalized: 2%
[8]; [20]
  Percent internalized: 88%
[8]; [19]
  Percent internalized: 83%
[8]; with Trastuzumab, 0 hr
  Percent internalized: 2%
[8]; with Trastuzumab, 24 hrs
  Percent internalized: 107%

## XMT 1519-(EG2-MI-(10 kDa PHF-BA-(AF-HPA-Ala))) [Example 16E]
[5]; 5 mg/kg IV single dose, n=10
  complete responses (number of animals): 10
  regressions: 100%
[10]
  tumor response: tumor retardation
[6]
  tumor response: tumor retardation
[11]; 2 mg/kg IV single dose
  tumor free survivors: 100%
[11]; 5 mg/kg IV single dose
  tumor free survivors: 100%

## XMT 1517: fully human anti-HER2 IgG1 monoclonal antibody, heavy chain SEQ ID NO: 1, light chain SEQ ID NO: 2
[7]
  HER2 remaining: 40%
[8]; antibody alone, 0 hr
  Percent internalized: 4%
[8]; antibody alone, 24 hrs
  Percent internalized: 83%
[8]; antibody alone, […]
  Percent internalized: 11%
[8]; [18]
  Percent internalized: 4%
[8]; [20]
  Percent internalized: 107%
[8]; with Trastuzumab, 0 hr
  Percent internalized: 3%
[8]; with Trastuzumab, 24 hrs
  Percent internalized: 106%
[8]; with Trastuzumab, […]
  Percent internalized: 17%

## XMT 1519-(EG2-MI-(10 kDa PHF-BA-(AF-HPA-Ala))) [Example 16H]
[12]
  tumor response: tumor retardation
[13]
  tumor response: complete tumor regressions
[14]; 1 mg/kg IV single dose at day 1
  regression responses and tumor free survivors: 100%
[14]; 3 mg/kg IV single dose at day 1
  regression responses and tumor free survivors: 100%

## XMT 1519-(EG2-MI-(10 kDa PHF-BA-(AF-HPA-Ala))) [Example 16F]
[15]; Day 60
  remained tumor free (number of animals): six
[15]; n=10
  complete responses (number of animals): eight
  partial responses (number of animals): two
  regression responses: 100%
[16]
  partial response out of ten: one

## XMT 1520: affinity matured fully human anti-HER2 IgG1 antibody, heavy chain SEQ ID NO: 7, light chain SEQ ID NO: 8
[17]
  AKT phosphorylation, percentage of untreated cells: about 30%
[7]
  HER2 remaining: 31%
  full length HER2, percentage of untreated cells: 68%
[8]; antibody alone, 0 hr
  Percent internalized: 2%
[8]; antibody alone, 24 hrs
  Percent internalized: 78%
[8]; antibody alone, […]
  Percent internalized: 14%
[8]; [18]
  Percent internalized: 3%
[8]; [20]
  Percent internalized: 101%
[8]; [19]
  Percent internalized: 89%
[8]; with Trastuzumab, 0 hr
  Percent internalized: 2%
[8]; with Trastuzumab, 24 hrs
  Percent internalized: 100%
[8]; with Trastuzumab, […]
  Percent internalized: 23%

From US9738720B2, “Monoclonal antibodies against HER2 epitope and methods of use thereof” (Mersana Therapeutics, Inc., priority 2014, dated 2017)
